The record followed here is PubChem BioAssay AID588677 (The Scripps Research Institute Molecular Screening Center, 2011).

Calls of active or inactive are those of the source.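 Rule for the calls: active = phosphorylated EGFR protein level shifted down or up by at least 30% versus solvent-only treated cells; inactive = shift under 30% in either direction.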

The term inhibition denotes the relative decrease from the control value, in per cent.

For this test, the target named is Epidermal growth factor receptor (Homo sapiens) (UniProt P00533). Put plainly: phospho-EGFR protein level reduction, late-stage follow-up, counter-screen for KLF5 inhibitor project, SW620 cells, chemiluminescent western blot, powder samples (AID 588677). As to conditions: p-EGFR western blot, 24 h, at 10 µM; for fold change: measured here: p-EGFR band fold change vs DMSO. On the technique in general: A counterscreen serves to expose hits that act by an unwanted route or on another target.
Chain of Epidermal growth factor receptor (Homo sapiens) (P00533 whole entry, looked up): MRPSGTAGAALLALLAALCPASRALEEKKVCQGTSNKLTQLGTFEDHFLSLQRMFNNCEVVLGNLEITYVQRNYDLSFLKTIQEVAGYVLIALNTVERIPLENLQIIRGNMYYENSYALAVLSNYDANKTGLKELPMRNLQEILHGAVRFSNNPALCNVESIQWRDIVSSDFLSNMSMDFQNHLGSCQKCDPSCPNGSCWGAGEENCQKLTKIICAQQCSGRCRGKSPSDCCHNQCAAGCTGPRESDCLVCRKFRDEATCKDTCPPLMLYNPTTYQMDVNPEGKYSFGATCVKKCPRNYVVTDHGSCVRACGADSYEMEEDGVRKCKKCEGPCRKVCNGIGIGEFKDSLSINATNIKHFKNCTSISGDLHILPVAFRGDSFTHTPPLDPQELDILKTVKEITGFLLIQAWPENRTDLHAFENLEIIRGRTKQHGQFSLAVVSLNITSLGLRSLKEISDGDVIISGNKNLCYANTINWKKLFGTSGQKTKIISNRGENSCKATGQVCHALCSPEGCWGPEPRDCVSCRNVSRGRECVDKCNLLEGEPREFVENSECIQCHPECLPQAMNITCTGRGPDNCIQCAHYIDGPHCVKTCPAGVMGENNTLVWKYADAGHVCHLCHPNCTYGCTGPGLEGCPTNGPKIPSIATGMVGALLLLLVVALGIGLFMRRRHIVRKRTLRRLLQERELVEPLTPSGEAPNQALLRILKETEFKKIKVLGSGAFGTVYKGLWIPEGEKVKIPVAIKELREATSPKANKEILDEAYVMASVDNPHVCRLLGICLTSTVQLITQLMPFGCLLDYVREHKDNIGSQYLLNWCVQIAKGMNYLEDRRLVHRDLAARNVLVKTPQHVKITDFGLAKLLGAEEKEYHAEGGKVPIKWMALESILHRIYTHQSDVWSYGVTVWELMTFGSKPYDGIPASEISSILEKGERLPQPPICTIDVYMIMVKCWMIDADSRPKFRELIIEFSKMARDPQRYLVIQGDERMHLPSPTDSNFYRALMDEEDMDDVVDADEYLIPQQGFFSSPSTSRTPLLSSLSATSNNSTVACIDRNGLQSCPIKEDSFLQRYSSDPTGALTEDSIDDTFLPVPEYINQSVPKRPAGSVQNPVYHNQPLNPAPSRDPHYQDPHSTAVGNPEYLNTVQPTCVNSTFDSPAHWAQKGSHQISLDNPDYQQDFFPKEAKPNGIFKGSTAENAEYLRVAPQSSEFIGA

With `CN(C(=O)COC(=O)/C=C/c1cccc([N+](=O)[O-])c1)C1CCS(=O)(=O)C1` (stereo not given), the inhibition was -71.5% and the fold change worked out at 1.72.
On to `CN(C(=O)CNC(=O)/C=C/c1cccc(Cl)c1)C1CCS(=O)(=O)C1` (stereo not given), for which the inhibition was 20% (inactive) and the fold change is -1.25.
Take `CN(C(=O)CNC(=O)/C=C/c1cccc(Cl)c1)C1CCS(=O)(=O)CC1`: the fold change came out at 14.2.
